Measurements reported in patent publication US20050282757A1, “Peptide boronic acid compounds useful in anticoagulation” (Trigen Limited, priority 2002, published 2005).
In brackets after ≈: the same amount, converted by molar mass. Several values for one entry are separate records, joined by “and”; a condition that tells them apart may be missing. Equal values may be shown once. Entries after “also recorded” stand apart in the source; their conditions may differ.

Key:
thrombin time [1] = experiment: Intraduodenal absorption in rat, thrombin time (Examples 42 and 44); assay type: in vivo, male Wistar rats; design: Mean increase in thrombin time / Thrombin time increase: unit not given here; conditions: for Group mean thrombin time (s ± sd): 20 mg/kg intraduodenal
Experimental: • Place 10 mg of the relevant compound in an Eppendorf cup • Add 0.5 mL ethanol and shake for 10 minutes • Sonicate for 10 minutes • Add 1.5 mL of buffer • Shake for additional 15 minutes • Resulting target concentration: 5 mg/mL B. Intraduodenal Studies
The intraduodenal studies were performed using male Wistar rats, approximately 8 weeks of age and weighing between 250 and 300 g.
Food was withheld overnight prior to dosing and returned approximately 2 hours post-dose. Water was available ad libitum.
Animals were anaesthetised using gaseous halothane. A small incision was made in the abdomen and the duodenum located. Each animal received a single administration of control or test article by injection directly into the duodenum, using a constant dose volume of 4 mL/kg. Following administration the incision was closed using surgical staples.
Individual dose volumes were based on individual body weights, obtained on the day of dosing. Treatments employed for the study were as follows:
(§1) Approximately 0.6 mL of blood was collected via a tail vein into 3.8% tri sodium citrate tubes approximately 48 hours prior to dosing and again at 0.5, 1, 2, 4 and 8 hours post-dose.
(§2) Plasma was prepared by centrifugation at […] for 10 minutes at 4° C. Plasma was stored frozen (nominally −20° C.) prior to analysis in an automated coagulometer.
The thrombin times determined in example 42 were analysed to determine the standard deviation for increase in thrombin time, expressed as a percentage of the mean value (this is sometimes called the ‘coefficient of variation’).

thrombin time [2] = experiment: Oral absorption in rat, thrombin time (Example 43); assay type: in vivo, male Wistar rats; conditions: 20 mg/kg oral gavage
Experimental: The procedure of Example 42 was followed.
The per-oral studies were performed using male Wistar rats, approximately 8 weeks of age and weighing between 250 and 300 g.
Food was withheld overnight prior to dosing and returned approximately 2 hours post-dose. Water was available adlibitum.
Each animal received a single administration of control or test article by oral gavage, using a constant dose volume of 4 mL/kg.
Individual dose volumes were based on individual body weights, obtained on the day of dosing.
as §1, §2

[3] = Hydrolysis under HPLC assay conditions; assay type: physicochemical; conditions: acid conditions of an HPLC assay / HPLC sample preparation
From the text: It has been discovered that TRI 50b tends to hydrolyse.

thrombin time and APTT = experiment: Oral administration in dog, PK/PD (Example 45)
Experimental: Three female and three male dogs were used for each leg of the study. The weight range of the dogs was 8-18 kg.
The PD was measured as thrombin time and APTT using an automated coagulometer. Plasma concentrations were measured using an LCMS/MS method.
The dose was tailored on an individual basis for each dog.

[4] = Maximum aqueous solubility by UV after shaking in water at 37° C.; assay type: physicochemical; conditions: read-out: Solubility when dissolved at 50 mg/ml
[5] = Stability in simulated gastric fluid (Example 51); assay type: in vitro ADME; conditions: 37° C.
Experimental: Approximately 2.5 mg of the compound is dissolved in 50 ml gastric fluid (37° C., according to BP with pepsin, an aliquot is transferred into an HPLC-vial and analysed immediately (time period =0). The aliquots for further time periods in HPLC-vials are stored in an autosampler at 37° C. […]

[6] = individual rats dosed intraduodenally, in s
[7] = gastric juice 0 min, initial set to 100

SMILES: COCCC[C@H](NC(=O)[C@@H]1CCCN1C(=O)[C@@H](Cc1ccccc1)NC(=O)OCc1ccccc1)B([O-])O.[K+] [Potassium Salt of TRI50C]
- Group mean thrombin time (s ± sd) (thrombin time [1]; 0.5 hour): 26.5 ± 3.64 s
- Group mean thrombin time (s ± sd) (thrombin time [1]; 1 hour): 24.4 ± 3.35 s
- Group mean thrombin time (s ± sd) (thrombin time [1]; 2 hour): 23.2 ± 0.83 s
- Group mean thrombin time (s ± sd) (thrombin time [1]; 4 hour): 23.2 ± 2.36 s
- Group mean thrombin time (s ± sd) (thrombin time [1]; 8 hour): 21.6 ± 0.70 s
- Group mean thrombin time (s ± sd) (thrombin time [1]; −48 hour (pre-dose)): 20.0 ± 1.92 s
- Group mean thrombin times (s ± sd) (thrombin time [2]; 0.5 hour): 24.7 ± 2.18 s
- Group mean thrombin times (s ± sd) (thrombin time [2]; 1 hour): 24.1 ± 1.87 s
- Group mean thrombin times (s ± sd) (thrombin time [2]; 2 hour): 22.9 ± 3.29 s
- Group mean thrombin times (s ± sd) (thrombin time [2]; 4 hour): 23.2 ± 1.24 s
- Group mean thrombin times (s ± sd) (thrombin time [2]; 8 hour): 23.8 ± 1.79 s
- Group mean thrombin times (s ± sd) (thrombin time [2]; −48 hour (pre-dose)): 22.0 ± 1.40 s

SMILES: COCCC[C@H](NC(=O)[C@@H]1CCCN1C(=O)[C@@H](Cc1ccccc1)NC(=O)OCc1ccccc1)B1OC(C)(C)C(C)(C)O1 [TRI 50b, Cbz-(R)-Phe-Pro-BoroMpg-OPinacol]
- stability under HPLC assay conditions [3]: converted to the acid form with a short half life

SMILES: COCCC[C@H](NC(=O)[C@@H]1CCCN1C(=O)[C@@H](Cc1ccccc1)NC(=O)OCc1ccccc1)B(O)O [TRI 50c, Cbz-(R)-Phe-(S)-Pro-(R)-Mpg-B(OH)2]
- Group mean thrombin time (s ± sd) (thrombin time [1]; 0.5 hour): 42.1 ± 19.54 s
- Group mean thrombin time (s ± sd) (thrombin time [1]; 1 hour): 27.5 ± 9.42 s
- Group mean thrombin time (s ± sd) (thrombin time [1]; 2 hour): 23.5 ± 6.40 s
- Group mean thrombin time (s ± sd) (thrombin time [1]; 4 hour): 21.8 ± 2.33 s
- Group mean thrombin time (s ± sd) (thrombin time [1]; 8 hour): 21.5 ± 2.67 s
- Group mean thrombin time (s ± sd) (thrombin time [1]; −48 hour (pre-dose)): 21.3 ± 2.69 s
- Mean increase in thrombin time (thrombin time [1]; 0.5 h minus 0 h, intraduodenal): 20.26
- Thrombin time, 0 h (thrombin time [1]; [6]): 23.70 and 23.10 and 16.85 and 21.67
- Thrombin time, 0.5 h (thrombin time [1]; [6]): 40.02 and 40.20 and 23.60 and 62.55
- Thrombin time increase (thrombin time [1]; individual rats, 0.5 h minus 0 h): 16.32 and 17.10 and 6.75 and 40.88
- absorption as estimated by dynamic response (TT) (thrombin time and APTT): Two animals failed to significantly absorb TRI 50c
- time of peak thrombin time post dose (thrombin time and APTT): 1.5 h
- mean thrombin clotting time at peak (C max) (thrombin time and APTT; base line 15 seconds (calcium salt), 15.4 seconds (TRI 50c)): 34.2 s
- tolerance (thrombin time and APTT; enterically coated gelatine capsules): tolerated well with no adverse events; also recorded: well tolerated orally
- Group mean thrombin times (s ± sd) (thrombin time [2]; 0.5 hour): 26.8 ± 1.96 s
- Group mean thrombin times (s ± sd) (thrombin time [2]; 1 hour): 23.3 ± 3.68 s
- Group mean thrombin times (s ± sd) (thrombin time [2]; 2 hour): 23.9 ± 2.25 s
- Group mean thrombin times (s ± sd) (thrombin time [2]; 4 hour): 23.1 ± 2.70 s
- Group mean thrombin times (s ± sd) (thrombin time [2]; 8 hour): 25.1 ± 0.33 s
- Group mean thrombin times (s ± sd) (thrombin time [2]; −48 hour (pre-dose)): 22.9 ± 2.28 s
- solubility [4]: 8 mM (≈ 4200 µg/mL)

SMILES: COCCC[C@H](NC(=O)[C@@H]1CCCN1C(=O)[C@@H](Cc1ccc(F)cc1)NC(=O)OCc1ccccc1)B([O-])O.[Na+] [TRIf monosodium salt]
- results, peak at rt 14.5 min [5, 7]: 100.0 peak-area-%
- results, peak at rt 17.3 min [5, 7]: 100.0 peak-area-%
- results, peak at rt […] [5, 7]: 100.0 peak-area-%
- results, peak at rt 14.5 min ([5]; gastric juice 35 min): 89.6 peak-area-%
- results, peak at rt 17.3 min ([5]; gastric juice 35 min): 99.1 peak-area-%
- results, peak at rt […] ([5]; gastric juice 35 min): 101.4 peak-area-%
- results, peak at rt 14.5 min ([5]; gastric juice 70 min): 84.6 peak-area-%
- results, peak at rt 17.3 min ([5]; gastric juice 70 min): 101.8 peak-area-%
- results, peak at rt […] ([5]; gastric juice 70 min): 101.1 peak-area-%
- results, peak at rt 14.5 min ([5]; gastric juice 105 min): 94.2 peak-area-%
- results, peak at rt 17.3 min ([5]; gastric juice 105 min): 100.3 peak-area-%
- results, peak at rt […] ([5]; gastric juice 105 min): 97.7 peak-area-%
- results, peak at rt 14.5 min ([5]; gastric juice 140 min): 93.9 peak-area-%
- results, peak at rt 17.3 min ([5]; gastric juice 140 min): 91.4 peak-area-%
- results, peak at rt […] ([5]; gastric juice 140 min): 94.6 peak-area-%
- results, peak at rt 14.5 min ([5]; gastric juice 175 min): 94.9 peak-area-%
- results, peak at rt 17.3 min ([5]; gastric juice 175 min): 97.7 peak-area-%
- results, peak at rt […] ([5]; gastric juice 175 min): 98.6 peak-area-%
- results, peak at rt 14.5 min ([5]; gastric juice 210 min): 98.1 peak-area-%
- results, peak at rt 17.3 min ([5]; gastric juice 210 min): 94.1 peak-area-%
- results, peak at rt […] ([5]; gastric juice 210 min): 94.4 peak-area-%
